Measurements reported in patent US8071586B2, “Heterocyclyl compounds” (Hoffmann-La Roche Inc., priority 2008, dated 2011).

These compounds were tested against T1, human chemokine receptor 2 isoform B (CCR2) (Homo sapiens, UniProt P41597) (assay: Calcium mobilization assay (FLIPR, MCP-1 stimulated CHOK1-CCR2B-A5 cells)). Conditions: Ca mobilisation assay, CCR2 antagonist activity, inhibition of MCP-1 induced calcium increase.
T1 sequence (P41597 1-360 isoform P41597-2): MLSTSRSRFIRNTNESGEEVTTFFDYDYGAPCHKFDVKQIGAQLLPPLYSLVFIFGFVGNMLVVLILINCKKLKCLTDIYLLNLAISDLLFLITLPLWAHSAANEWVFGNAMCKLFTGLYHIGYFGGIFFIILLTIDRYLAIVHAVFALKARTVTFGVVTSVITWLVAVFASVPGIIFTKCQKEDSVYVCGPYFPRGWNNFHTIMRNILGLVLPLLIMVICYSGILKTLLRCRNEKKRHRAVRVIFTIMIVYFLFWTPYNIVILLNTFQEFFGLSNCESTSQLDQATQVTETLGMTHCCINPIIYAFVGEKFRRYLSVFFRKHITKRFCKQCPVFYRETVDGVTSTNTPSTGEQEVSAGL
Format: cell-based
Procedure: Calcium Mobilization Assay
CHOK1-CCR2B-A5 cells (from Euroscreen) stably overexpressing the human chemokine receptor 2 isoform B were cultured in Nutrient Hams F12 medium supplemented with 5% FBS, 100 U/ml penicillin, 100 μg/ml streptomycin, 400 μg/ml G418 and 5 μg/ml puromycin.
For the assay cells were grown overnight in 384-well black clear flat bottom polystyrene plates (Costar) at 37° C. at 5% CO2. After washing with DMEM, 20 mM Hepes, 2.5 mM probenecid, 0.1% BSA (DMEM assay buffer) cells were loaded with 4 μM Fluo-4 in the same DMEM assay buffer for 2 hours at 30° C. Excess dye was removed and cells were washed with DMEM assay buffer. 384-well compound plates were prepared with DMEM assay buffer/0.5% DMSO with or without various concentrations of test compounds. Usually compounds were tested for agonist and antagonist activity.
Test compounds were added to the assay plate and agonist activity was monitored as fluorescence for 80 seconds with a FLIPR (488 nm excitation; 510-570 nm emission; Molecular Devices). After 20-30 min. of incubation at 30° C., […] MCP-1 (R&D; Roche) was added and fluorescence was monitored again for 80 seconds. Increases in intracellular calcium are reported as maximum fluorescence after agonist exposure minus basal fluorescence before exposure. Antagonist activity is indicated as inhibitor concentration required for 50% inhibition of specific calcium increases.

**Q.** For C[C@H]1C(=O)N(C[C@H](O)CN2CCC3(CC3)[C@H](O)C2)CCN1C(=O)Nc1cccc(Cl)c1 [Example 123, (S)-4-[(R)-2-Hydroxy-3-((S)-4-hydroxy-6-aza-spiro[2.5]oct-6-yl)-propyl]-2-methyl-3-oxo-piperazine-1-carboxylic acid (3-chloro-phenyl)-amide], which IC50 is on record?
**A.** Its IC50 is 248 nM.

**Q.** How did the IC50 turn out when C[C@H]1C(=O)N(CCCN2CCCCC2)CCN1C(=O)Nc1ccc2ccccc2c1 [Example 40, (S)-2-Methyl-3-oxo-4-(3-piperidin-1-yl-propyl)-piperazine-1-carboxylic acid naphthalen-2-ylamide] was run?
**A.** The IC50 was 360 nM.

**Q.** For O=C(Nc1ccc(Cl)c(Cl)c1)N1CCC(=O)N([C@H](CO)CCN2CCC3(CC3)[C@H](O)C2)CC1 [Example 53, 4-[(S)-3-((S)-4-Hydroxy-6-aza-spiro[2.5]oct-6-yl)-1-hydroxymethyl-propyl]-5-oxo-[1,4]diazepane-1-carboxylic acid (3,4-dichloro-phenyl)-amide], which IC50 is on record?
**A.** Its IC50 is 1 nM.

**Q.** How did the IC50 turn out when C[C@H]1C(=O)N(CCCN2CCCCC2)CCN1C(=O)Nc1ccc(-c2ccccc2)cc1 [Example 38, (S)-2-Methyl-3-oxo-4-(3-piperidin-1-yl-propyl)-piperazine-1-carboxylic acid biphenyl-4-ylamide] was run?
**A.** The IC50 was 210 nM.

**Q.** How did the IC50 turn out when C[C@H]1C(=O)N(CCCN2CCCCC2)CCN1C(=O)Nc1ccc(F)c(Cl)c1 [Example 42, (S)-2-Methyl-3-oxo-4-(3-piperidin-1-yl-propyl)-piperazine-1-carboxylic acid (3-chloro-4-fluoro-phenyl)-amide] was run?
**A.** Its IC50 is 110 nM.

**Q.** For C[C@@H]1CN(CCCN2CCCCC2)C(=O)CCN1C(=S)Nc1ccc(Cl)c(Cl)c1 [Example 26, (R)-2-Methyl-5-oxo-4-(3-piperidin-1-yl-propyl)-[1,4]diazepane-1-carbothioic acid (3,4-dichloro-phenyl)-amide], which IC50 is on record?
**A.** Its IC50 is 580 nM.

**Q.** With C[C@H]1C(=O)N(CCCN2CCC3(CC3)[C@H](O)C2)CCN1C(=O)Nc1cccc(F)c1 [Example 73, (S)-4-[3-((S)-4-Hydroxy-6-aza-spiro[2.5]oct-6-yl)-propyl]-2-methyl-3-oxo-piperazine-1-carboxylic acid (3-fluoro-phenyl)-amide] as the compound, how does the IC50 read?
**A.** Its IC50 is 21 nM.

**Q.** C[C@H]1C(=O)N(CCCN2CCC3(CC3)[C@H](O)C2)CCN1C(=O)Nc1ccc(F)c(Cl)c1 [Example 70, (S)-4-[3-((S)-4-Hydroxy-6-aza-spiro[2.5]oct-6-yl)-propyl]-2-methyl-3-oxo-piperazine-1-carboxylic acid (3-chloro-4-fluoro-phenyl)-amide] was tested. Which IC50 did it give?
**A.** The IC50 was 4 nM.

**Q.** With COCC(CCN1CCC2(CC2)[C@H](O)C1)N1CCN(C(=O)Nc2cccc(Cl)c2)CCC1=O (stereo partly drawn) [Example 5, (R,S)-4-[3-((S)-4-Hydroxy-6-aza-spiro[2.5]oct-6-yl)-1-methoxymethyl-propyl]-5-oxo-[1,4]diazepane-1-carboxylic acid (3-chloro-phenyl)-amide] as the compound, how does the IC50 read?
**A.** The IC50 was 50 nM.

**Q.** For C[C@H]1C(=O)N(CCCN2CCCCC2)CCN1C(=O)Nc1ccc(Cl)c(Cl)c1 [Example 37, (S)-2-Methyl-3-oxo-4-(3-piperidin-1-yl-propyl)-piperazine-1-carboxylic acid (3,4-dichloro-phenyl)-amide], which IC50 is on record?
**A.** The IC50 was 50 nM.

**Q.** C[C@H]1C(=O)N(CCCCN2CCC3(CC3)[C@H](O)C2)CCN1C(=S)Oc1ccc2ccccc2c1 [Example 92, (S)-4-[4-((S)-4-Hydroxy-6-aza-spiro[2.5]oct-6-yl)-butyl]-2-methyl-3-oxo-piperazine-1-carbothioic acid O-naphthalen-2-yl ester] was tested. Which IC50 did it give?
**A.** The IC50 was 624 nM.

**Q.** C[C@H]1C(=O)N(CCCN2CCC3(CC3)[C@H](O)C2)CCN1C(=O)Nc1cccc(Cl)c1 [Example 69, (S)-4-[3-((S)-4-Hydroxy-6-aza-spiro[2.5]oct-6-yl)-propyl]-2-methyl-3-oxo-piperazine-1-carboxylic acid (3-chloro-phenyl)-amide] was tested. Which IC50 did it give?
**A.** Its IC50 is 5 nM.

**Q.** For C[C@H]1C(=O)N(C[C@@H](O)CN2CCC3(CC3)[C@H](O)C2)CCN1C(=O)Nc1cccc(Cl)c1 [Example 121, (S)-4-[(S)-2-Hydroxy-3-((S)-4-hydroxy-6-aza-spiro[2.5]oct-6-yl)-propyl]-2-methyl-3-oxo-piperazine-1-carboxylic acid (3-chloro-phenyl)-amide], which IC50 is on record?
**A.** The IC50 was 6 nM.

**Q.** O=C1CCN(C(=O)Nc2ccc(Cl)c(Cl)c2)[C@H](Cc2ccccc2)CN1CCCN1CCCCC1 [Example 27, (R)-2-Benzyl-5-oxo-4-(3-piperidin-1-yl-propyl)-[1,4]diazepane-1-carboxylic acid (3,4-dichloro-phenyl)-amide] was tested. Which IC50 did it give?
**A.** The IC50 was 540 nM.

**Q.** Which IC50 does the source give for O=C(NCc1ccc(Cl)c(Cl)c1)N1CCC(=O)N([C@H](CO)CCN2CCC3(CC3)[C@H](O)C2)CC1 [Example 51, 4-[(S)-3-((S)-4-hydroxy-6-aza-spiro[2.5]oct-6-yl)-1-hydroxymethyl-propyl]-5-oxo-[1,4]diazepane-1-carboxylic acid 3,4-dichloro-benzylamide] here?
**A.** Its IC50 is 250 nM.

**Q.** COC[C@@H](CCN1CCC2(CC2)[C@H](O)C1)N1CCN(C(=O)Nc2ccc(Cl)c(Cl)c2)CCC1=O [Example 57, 4-[(R)-3-((S)-4-hydroxy-6-aza-spiro[2.5]oct-6-yl)-1-methoxymethyl-propyl]-5-oxo-[1,4]diazepane-1-carboxylic acid (3,4-dichloro-phenyl)-amide] was tested. Which IC50 did it give?
**A.** Its IC50 is 240 nM.

**Q.** O=C(Oc1ccc(Cl)c(Cl)c1)N1CCC(=O)N(C(CO)CCN2CCC3(CC3)[C@H](O)C2)CC1 (stereo partly drawn) [Example 9, (R,S)-4-[3-((S)-4-Hydroxy-6-aza-spiro[2.5]oct-6-yl)-1-hydroxymethyl-propyl]-5-oxo-[1,4]diazepane-1-carboxylic acid 3,4-dichloro-phenyl ester] was tested. Which IC50 did it give?
**A.** The IC50 was 420 nM.

**Q.** With CC(=O)OC[C@H](CCN1CCC2(CC2)[C@H](O)C1)N1CCN(C(=O)Nc2cccc(Cl)c2)[C@@H](C)C1=O [Example 109, Acetic acid (S)-2-[(S)-4-(3-chloro-phenylcarbamoyl)-3-methyl-2-oxo-piperazin-1-yl]-4-((S)-4-hydroxy-6-aza-spiro[2.5]oct-6-yl)-butyl ester] as the compound, how does the IC50 read?
**A.** Its IC50 is 10 nM.

**Q.** Which IC50 does the source give for CC(C)C(=O)OC[C@H](CCN1CCC2(CC2)[C@H](O)C1)N1CCN(C(=O)Nc2ccc(Cl)c(Cl)c2)[C@@H](C)C1=O [Example 115, Isobutyric acid (S)-2-[(S)-4-(3,4-dichloro-phenylcarbamoyl)-3-methyl-2-oxo-piperazin-1-yl]-4-((S)-4-hydroxy-6-aza-spiro[2.5]oct-6-yl)-butyl ester] here?
**A.** Its IC50 is 10 nM.

**Q.** How did the IC50 turn out when CC(C)OC(=O)OC[C@H](CCN1CCC2(CC2)[C@H](O)C1)N1CCN(C(=O)Nc2ccc(Cl)c(Cl)c2)[C@@H](C)C1=O [Example 113, Carbonic acid (S)-2-[(S)-4-(3,4-dichloro-phenylcarbamoyl)-3-methyl-2-oxo-piperazin-1-yl]-4-((S)-4-hydroxy-6-aza-spiro[2.5]oct-6-yl)-butyl ester isopropyl ester] was run?
**A.** The IC50 was 1 nM.

**Q.** O=S1(=O)CCN(C(=S)Nc2ccc(Cl)c(Cl)c2)CCN1CCCN1CCCCC1 [Example 22, 1,1-Dioxo-2-(3-piperidin-1-yl-propyl)-[1,2,5]thiadiazepane-5-carbothioic acid (3,4-dichloro-phenyl)-amide] was tested. Which IC50 did it give?
**A.** The IC50 was 770 nM.

**Q.** Which IC50 does the source give for COC[C@H](CCN1CCC2(CC2)[C@H](O)C1)N1CCN(C(=O)Nc2cccc(F)c2)[C@@H](C)C1=O [Example 83, (S)-4-[(S)-3-((S)-4-Hydroxy-6-aza-spiro[2.5]oct-6-yl)-1-methoxymethyl-propyl]-2-methyl-3-oxo-piperazine-1-carboxylic acid (3-fluoro-phenyl)-amide] here?
**A.** Its IC50 is 9 nM.

**Q.** With COC[C@H](CCN1CCC2(CC2)[C@H](O)C1)N1CCN(C(=O)Nc2ccc(Cl)c(Cl)c2)CCC1=O [Example 56, 4-[(S)-3-((S)-4-hydroxy-6-aza-spiro[2.5]oct-6-yl)-1-methoxymethyl-propyl]-5-oxo-[1,4]diazepane-1-carboxylic acid (3,4-dichloro-phenyl)-amide] as the compound, how does the IC50 read?
**A.** Its IC50 is 2 nM.

**Q.** For COCC(CCN1CCC2(CC2)[C@H](O)C1)N1CCN(C(=O)Nc2ccc(Cl)c(Cl)c2)CCC1=O (stereo partly drawn) [Example 55, (R,S)-4-[3-((S)-4-Hydroxy-6-aza-spiro[2.5]oct-6-yl)-1-methoxymethyl-propyl]-5-oxo-[1,4]diazepane-1-carboxylic acid (3,4-dichloro-phenyl)-amide], which IC50 is on record?
**A.** Its IC50 is 4 nM.

**Q.** How did the IC50 turn out when COCC(CCN1CCC2(CC2)[C@H](O)C1)N1CCN(C(=O)Oc2ccc(Cl)c(Cl)c2)CCC1=O (stereo partly drawn) [Example 7, (R,S)-4-[3-((S)-4-Hydroxy-6-aza-spiro[2.5]oct-6-yl)-1-methoxymethyl-propyl]-5-oxo-[1,4]diazepane-1-carboxylic acid 3,4-dichloro-phenyl ester] was run?
**A.** Its IC50 is 370 nM.

**Q.** With C[C@H]1C(=O)N(CCCN2CCC3(CC3)[C@H](O)C2)CCN1C(=O)Nc1ccc(-c2ccccc2)cc1 [Example 76, (S)-4-[3-((S)-4-Hydroxy-6-aza-spiro[2.5]oct-6-yl)-propyl]-2-methyl-3-oxo-piperazine-1-carboxylic acid biphenyl-4-ylamide] as the compound, how does the IC50 read?
**A.** Its IC50 is 3 nM.
